The results in this text go back to US20240009191A1, “METHOD AND COMPOSITION FOR THE TREATMENT OF DISEASE” (DIMERIX BIOSCIENCE PTY LTD, priority 2019, published 2024).

Common to all, as to assay type: cell-based
One test concerns the target T1, AT1R and CXCR2 (Homo sapiens, UniProt P25025+P30556).
T1 sequence (P30556 1-359): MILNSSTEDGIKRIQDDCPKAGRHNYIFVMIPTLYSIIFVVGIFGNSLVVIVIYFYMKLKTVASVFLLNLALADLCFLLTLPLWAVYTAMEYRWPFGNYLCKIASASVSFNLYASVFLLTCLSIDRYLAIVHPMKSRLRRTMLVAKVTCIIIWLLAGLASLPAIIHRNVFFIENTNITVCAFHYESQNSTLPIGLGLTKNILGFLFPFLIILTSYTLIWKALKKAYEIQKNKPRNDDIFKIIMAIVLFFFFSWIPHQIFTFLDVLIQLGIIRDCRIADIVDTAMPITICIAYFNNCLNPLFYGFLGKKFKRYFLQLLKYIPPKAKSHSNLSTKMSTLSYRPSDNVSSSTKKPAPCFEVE
T1 sequence (P25025 1-360): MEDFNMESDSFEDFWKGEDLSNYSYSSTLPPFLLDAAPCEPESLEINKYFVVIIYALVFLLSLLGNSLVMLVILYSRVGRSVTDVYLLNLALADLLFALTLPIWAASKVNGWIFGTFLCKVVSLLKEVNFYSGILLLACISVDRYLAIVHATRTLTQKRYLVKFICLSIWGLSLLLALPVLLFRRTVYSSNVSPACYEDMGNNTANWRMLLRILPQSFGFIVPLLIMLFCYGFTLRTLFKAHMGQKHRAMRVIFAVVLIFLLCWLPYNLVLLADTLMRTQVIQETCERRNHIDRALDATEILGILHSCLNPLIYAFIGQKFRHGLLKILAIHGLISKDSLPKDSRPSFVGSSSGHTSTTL
In words: IP1 accumulation, HEK293 cells transiently-transfected with AT1R and CXCR2. The method, then:
Referring now to FIG. 2, Receptor activation of the phospholipase C pathway was detected through the measurement of D-myo-Inositol 1-Phosphate (IP1) by competitive immunoassay (IP-one—Gq Kit, Cisbio 62IPAPEC). Human Embryonic Kidney (HEK) 293 cells were transiently transfected in suspension with the AGTR1 vector (Origene RC212008) alone or co-transfected with the CXCR2 vector (Origene Cat RC207794) using FuGene™ HD reagent (Promega E2311). […] Agonists were prepared in a threefold serial dilution in stimulation buffer+0.1% BSA and added to the assay to give the appropriate final concentration-response curves, and co-stimulation at a single concentration as required. An IP1 standard curve was also constructed in 14 μl Stimulation Buffer+0.1% BSA. Incubations were conducted for 90 min at 37° C., 5% CO2, after which 3 μl IP1-d2 Reagent and 3 μl IP1 Tb Cryptate Antibody (Cisbio 62IPAPEC), in Lysis & Detection buffer, were added to each well for 60 min at room temperature. Plates were read on a HTRF® compatible reader (PHERAstar™, BMG Labtech), using 337 nm excitation and collecting donor/acceptor emission at 620 nm and 665 nm. A standard curve was plotted to interpolate unknown HTRF ratio (665/620×10 000) measurements as IP1 concentration (nM). […]

Test [1] addresses T2, AT1R-CXCR2 heteromer (Homo sapiens, UniProt P25025+P30556).
T2 sequence (P25025 1-360): T1 sequence (P25025 1-360)
T2 sequence (P30556 1-359): T1 sequence (P30556 1-359)
In words: BRET trafficking of CXCR2/Rluc8 (Venus/Kras, Rab5, Rab8) with HA-AT1R, pre-treatment with vehicle or antagonists/inverse agonists. On the procedure: (§1) HEK293FT cells were seeded in 6-well plates at a density of approximately 700,000 cells/well and maintained at 37° C., 5% CO2 in Complete Media (DMEM containing 0.3 mg/ml glutamine, 100 IU/ml penicillin and 100 μg/ml streptomycin (Gibco/Thermo Fisher)) supplemented with 10% fetal calf serum (FCS; Bovogen). Transient transfections were carried out 24 h after seeding using FuGene6™ (Promega) according to manufacturer instructions. 24 h post-transfection, cells were washed with PBS, detached using 0.05% trypsin/0.53 mM EDTA, resuspended in HEPES-buffered phenol red free Complete Media containing 5% FCS and added to a poly-L-lysine-coated white 96-well microplate (Greiner Bio-One). 48 h post-transfection, bioluminescence resonance energy transfer (BRET) assays were carried out following pre-incubation of cells with EnduRen™ (Promega) at a final concentration of 30 μM, at 37° C., 5% CO2 for 2 h. BRET measurements were taken at 37° C. using the LUMlstar™ or CLARIOstar™ (BMG Labtech).
(§2) For antagonist/inverse agonist assays, cells were pre-incubated with EnduRen for 1.5 hours, followed by the addition of vehicle or antagonists/inverse agonists (10 μM) for another 30 minutes.
(§3) The BRET signal observed between interacting proteins is normalized by subtracting the background BRET ratio. […] In the following examples, the second calculation will be used and the signal is described as ligand-induced BRET′. Furthermore, for data shown in FIGS. 4 to 20, all data points in a given set are corrected relative to the final data point prior to agonist treatment, which is fixed to zero. In keys on FIGS. 7 to 20, “>” means “followed by after 50 minutes”, with agonists added at time zero on the x-axes.
(§4) Prior to agonist treatment (added at 0 minutes), a baseline BRET signal was recorded for each of the combinations for 20 minutes. Data were calculated as ligand-induced BRET relative to the ‘vehicle followed by vehicle’ (veh>veh) data set.
(Bioluminescence resonance energy transfer reports proximity on the nanometre scale.)

The target in test [2] is T3, AT1R-CXCR2 heteromer (Homo sapiens, UniProt P25025+P30556).
T3 sequence (P30556 1-359): T1 sequence (P30556 1-359)
T3 sequence (P25025 1-360): T1 sequence (P25025 1-360)
In words: BRET trafficking of AT1R/Rluc8 (Venus/Kras, Rab5) with unlabelled CXCR2, pre-treatment with vehicle or antagonists/inverse agonists. The settings on record: pre-treatment with vehicle, 100 nM AngII only or with 10 nM CXCL8. On the procedure: as §1, §2, §3, §4

As to Angiotensin II [AngII], at AT1R and CXCR2, the “Rmax, IP1 accumulation” value is 567 nM. At AT1R-CXCR2 heteromer [1], the “proximity of CXCR2/Rluc8 to Venus/Kras (BRET)” value is listed as “increased proximity”, the “proximity of CXCR2/Rluc8 to Venus/Rab5 (BRET)” value is on record as “very small increase” and the “proximity of CXCR2/Rluc8 to Venus/Rab8 (BRET)” value is “clear increase”. Moreover, at AT1R-CXCR2 heteromer [2] (FIG. 19A, 19B), the “proximity of AT1R/Rluc8 to Venus/Kras (BRET)” value is “marked reduction”. Moreover, at AT1R-CXCR2 heteromer [2] (FIG. 20A, 20B), the “proximity of AT1R/Rluc8 to Venus/Rab5 (BRET)” value is recorded as “marked increase”.
